Test results: patent publication US5534498A, “Trypsin inhibitors” (Corvas International, Inc., priority 1993, dated 1996)
Non-standard residues stand in square brackets, D forms with d. Residues, ends and D or L forms follow the SMILES beside them. *: point of attachment. Boc = CC(C)(C)OC(=O)*

How the values were obtained:
[1] = target: recombinant tissue plasminogen activator (Homo sapiens, UniProt P00750); assay: Tissue plasminogen activator assay (S-2288 substrate); type: biochemical; details: for Calculated % Selectivity tPA: [IC50 for Trypsin/IC50 for other enzyme]×100, lower = more trypsin selective
Experimental: (§1) The specificity of the peptide aldehydes (8 through 12) was determined in vitro by measurement of their IC50 against other enzymes involved in hemostasis. A specific concentration of enzyme and its substrate were challenged with varying concentrations of inhibitor. […] Specific assay procedures used are presented below.
(§2) 96-well microtiter plates were prepared for use in these assays by incubating each well with 300 μL 1% bovine serum albumin (in deionized water) for 30 minutes at 37° C., then washing three times with deionized water.
(§3) The substrate was made up in deionized water prior to use.

human kallekrein = target: T1, human kallekrein (Homo sapiens, UniProt P03952); assay: Kallikrein assay (S-2302 substrate); type: biochemical; details: for IC50: 30 min preincubation, room temperature, tested 0.025-25 μM, Inact. = no inhibition at highest concentration; for Calculated % Selectivity Kallikrein: [IC50 for Trypsin/IC50 for other enzyme]×100, lower = more trypsin selective
T1 construct: 50 μL of 4 to 9 nM human kallekrein
Experimental: as §1, §2, §3

[2] = system: acute pancreatitis induced in animal models; details: literature reports; cited from earlier work
[3] = target: T2, Activated human Protein C (Homo sapiens, UniProt P04070); assay: Protein C assay (Pefachrome PC substrate); type: biochemical; details: for Calculated % Selectivity Protein C: [IC50 for Trypsin/IC50 for other enzyme]×100, lower = more trypsin selective
T2 construct: from tissue
Experimental: as §1, §2
Enzyme activity was determined using as substrate, Pefachrome PC [δ-carbobenzoloxy-D-lysyl-L-prolyl-L-arginine-p-nitroanilide], purchased from Centerchem, Inc. The substrate was made up in deionized water prior to use. Protac used to activate Protein C was obtained from American Diagnostics.

human Factor XIa = target: T3, human Factor XIa (Homo sapiens, UniProt P03951); assay: Factor XIa assay (S-2366 substrate); type: biochemical; details: for IC50: 30 min preincubation, room temperature, tested 0.025-25 μM, Inact. = no inhibition at highest concentration; for Calculated % Selectivity XIa: [IC50 for Trypsin/IC50 for other enzyme]×100, lower = more trypsin selective
T3 construct: 50 μL of 5 nM human Factor XIa
Experimental: as §1, §2, §3

human Factor Xa = target: T4, human Factor Xa (Homo sapiens, UniProt P00742); assay: Factor Xa assay (Pefachrome Xa substrate); type: biochemical; details: for Calculated % Selectivity Xa: [IC50 for Trypsin/IC50 for other enzyme]×100, lower = more trypsin selective
T4 construct: 50 μL 30 nM human Factor Xa
Experimental: as §1, §2
Enzyme activity was determined using as substrate, Pefachrome Xa [N-methoxycarbonyl-D-cyclohexylalanyl-L-glycyl-L-arginine p-niroanilide acetate], purchased from Centerchem, Inc. The substrate was made up in deionized water prior to use.

bovine trypsin = target: T5, bovine trypsin (Bos taurus, UniProt P00760); assay: Trypsin assay, IC50 (S-2222 substrate); type: biochemical; details: for IC50: 30 min preincubation, room temperature, tested 0.025-25 μM; for Calculated % Selectivity Trypsin: trypsin relative to itself (reference, 100 by definition)
T5 sequence (P00760 24-246): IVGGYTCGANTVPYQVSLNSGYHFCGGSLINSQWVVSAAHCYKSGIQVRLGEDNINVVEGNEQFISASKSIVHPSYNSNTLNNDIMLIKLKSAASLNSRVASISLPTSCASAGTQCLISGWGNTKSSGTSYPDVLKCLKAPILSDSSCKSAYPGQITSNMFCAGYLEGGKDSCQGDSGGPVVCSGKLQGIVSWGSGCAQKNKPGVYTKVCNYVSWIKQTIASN
Experimental: as §1, §2, §3

Factor VIIa:rTF complex = target: T6, Factor VIIa:rTF complex (Homo sapiens, UniProt P08709); assay: Factor VIIa assay (S-2288 substrate); type: biochemical; details: for Calculated % Selectivity VIIa: [IC50 for Trypsin/IC50 for other enzyme]×100, lower = more trypsin selective
T6 construct: 2.5 ml 400 nMhuman Factor VIIa
Experimental: (§4) The specificity of the peptide aldehydes (8 through 12) was determined in vitro by measurement of their IC50 against other enzymes involved in hemostasis. A specific concentration of enzyme and its substrate were challenged with varying concentrations of inhibitor. IC50 is that concentration of inhibitor giving 50% inhibition of substrate turnover, under the assay conditions. Specific assay procedures used are presented below.
as §2
Enzyme activity was determined using as substrate, S-2288 [D-isoleucyl-L-prolyl-L-arginine-p-nitroanilide dihydrochloride], purchased from Kabi Diagnostica. The substrate was made up in deionized water prior to use.
Both solutions were then incubated for 30 minutes at room temperature before use in the assay.
The assay was run by combining in appropriate wells 50 μL inhibitor in TBS or TBS alone and 100 μL of Factor VIIa:rTF complex or background control, incubating this mixture for 30 minutes at room temperature, adding 50 μL of 2 mM S-2288, incubating for an additional 30 to 60 minutes at room temperature, then reading the absorbance of the wells at 405 nm on a microtiter plate reader set with background substraction at 650 nm.

bovine thrombin = target: T7, bovine thrombin (Bos taurus, UniProt P00735); assay: Thrombin assay (S-2238 substrate); type: biochemical; details: for Calculated % Selectivity Thrombin: [IC50 for Trypsin/IC50 for other enzyme]×100, lower = more trypsin selective
T7 construct: 50 μL 20 nM bovine thrombin
Experimental: as §4, §2
Enzyme activity was determined using as substrate, S-2238 [D-phenylalanyl-L-pipecolyl-L-arginine-p-nitroanilide dihydrochloride], purchased from Kabi Diagnostica. The substrate was made up in deionized water prior to use.
The assay was run by combining in appropriate wells 50 μL TBS and 50 μL inhibitor in TBS or TBS alone and 50 μL 20 nM bovine thrombin (or TBS as background control), incubating this mixture for 30 minutes at room temperature, adding 50 μL 1 mM S-2238, incubating for an additional 30 minutes at room temperature, then reading the absorbance of the wells at 405 nm on a microtiter plate reader set with background substraction at 650 nm.

plasmin = plasmin (Homo sapiens, UniProt P00747); assay: Plasmin assay (S-2251 substrate); type: biochemical; parameters: 50 μL 25 nM human plasmin; details: for IC50: 30 min preincubation, room temperature, tested 0.025-25 μM, Inact. = no inhibition at highest concentration; for Calculated % Selectivity Plasmin: [IC50 for Trypsin/IC50 for other enzyme]×100, lower = more trypsin selective
Experimental: as §1, §2, §3

human urokinase = target: T8, human urokinase (Homo sapiens, UniProt P00749); assay: Urokinase assay (S-2444 substrate); type: biochemical; details: for IC50: 30 min preincubation, room temperature, tested 0.025-25 μM, Inact. = no inhibition at highest concentration; for Calculated % Selectivity UK: [IC50 for Trypsin/IC50 for other enzyme]×100, lower = more trypsin selective
T8 construct: 50 μL of 270 U/mL human urokinase
Experimental: as §4, §2
Enzyme activity was determined using as substrate S-2444 [L-pyroglutamyl-L-glycyl-L-arginine-p-nitroanilide hydrochloride], purchased from Kabi Diagnostica. The substrate was made up in deionized water prior to use.
The assay was run by combining in appropriate wells 50 μL inhibitor in TBS or TBS alone and 50 μL of 270 U/mL human urokinase (or TBS as background control) and 50 μL TBS, incubating this mixture for 30 minutes at room temperature, adding 50 μL 1 mM S-2444, incubating for an additional 30 minutes at room temperature, then reading the absorbance of the wells at 405 nm on a microtiter plate reader set with background substraction at 650 nm.

[4] = target: bovine and human pancreatic trypsin; assay: Potency: determination of inhibitor constant Ki against trypsin (S-2222 substrate, Dixon plot); type: biochemical; details: 37° C., TBS pH 7.4, 15 min preincubation, read-out: Ki For Peptide Aldehydes Against Trypsin
Experimental: The potency and specificity of the compounds of the present invention are determined by in vitro assay methods well known in the art. […] Specifically, the inhibitor constant, Ki, of the compounds can be determined by the method of Dixon, Biochem. J. 55:170 (1953). The specificity is assessed by determination of the concentration, IC50, of compound required to give 50% inhibition of the enzymatic activity of the coagulation enzymes, kallikrein, factor XIa, factor VIIa, factor Xa, thrombin; the fibrinolysis enzymes, plasmin, tissue plasminogen activator (tPA), and urokinase (UK), and the anticoagulation enzyme, protein C. Specificity is found when the concentration of compound giving 50% inhibition of trypsin is low relative to the concentration required to give like inhibition of the other enzymes.
Enzyme activity was determined using as substrate S-2222 [N-benzoyl-L-isoleucyl-L-glutamyl-glycyl-L-arginine-p-nitroanilide hydrochloride where glutamyl side chain is 50% carboxylic acid and 50% methyl ester], purchased from Kabi Diagnostica. The substrate was made up in deionized water prior to use.
A 96-well microtiter plate was prepared for use in the assay by incubating each well with 300 μL of 1% bovine serum albumin (in deionized water) for 30 minutes at 37° C., and washing three times with deionized water.
To each well was added 50 μL TBS (0.1M Tris, 0.14M NaCl, pH 7.4), 50 μL 2.5 nM trypsin and 50 μL peptide aldehyde in TBS or TBS alone. After incubating for 15 minutes at 37° C., 50 μL of S-2222 (at 37° C.) at a specified concentration was added to each well. After mixing, the rate of substramte turnover at 37° C. was measured for 30 minutes at 405 nm (generation of p-nitroaniline). The initial S-2222 concentrations in the assay mixture were 0.45, 0.23, 0.11, 0.056, and 0.028 mM.
Ki was determined graphically using a Dixon plot, as described in Dixon, Biochem. J. 55:170 (1953).

[5] = 30 min preincubation, room temperature, tested 0.025-25 μM, Inact. = no inhibition at highest concentration

T1 sequence (P03952 391-638 limits assumed): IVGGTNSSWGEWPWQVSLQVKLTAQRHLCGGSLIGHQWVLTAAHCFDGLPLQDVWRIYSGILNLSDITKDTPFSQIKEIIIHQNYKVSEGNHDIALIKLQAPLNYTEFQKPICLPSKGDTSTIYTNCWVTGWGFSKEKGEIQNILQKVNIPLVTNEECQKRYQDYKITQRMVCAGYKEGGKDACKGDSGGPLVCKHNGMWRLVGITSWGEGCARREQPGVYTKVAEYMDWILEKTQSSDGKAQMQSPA
T1 sequence (P03952 20-390 partner limits assumed): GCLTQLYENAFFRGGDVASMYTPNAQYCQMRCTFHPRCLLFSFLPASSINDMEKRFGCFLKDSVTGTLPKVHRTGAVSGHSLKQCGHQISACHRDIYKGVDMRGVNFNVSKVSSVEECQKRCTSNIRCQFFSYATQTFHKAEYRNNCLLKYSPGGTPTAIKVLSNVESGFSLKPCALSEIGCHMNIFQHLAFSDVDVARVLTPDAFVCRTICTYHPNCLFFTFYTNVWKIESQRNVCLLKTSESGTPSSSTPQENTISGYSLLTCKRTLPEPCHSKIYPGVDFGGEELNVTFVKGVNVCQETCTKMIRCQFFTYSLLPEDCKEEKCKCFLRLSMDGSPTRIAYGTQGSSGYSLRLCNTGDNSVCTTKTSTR
T4 sequence (P00742 235-488 limits assumed): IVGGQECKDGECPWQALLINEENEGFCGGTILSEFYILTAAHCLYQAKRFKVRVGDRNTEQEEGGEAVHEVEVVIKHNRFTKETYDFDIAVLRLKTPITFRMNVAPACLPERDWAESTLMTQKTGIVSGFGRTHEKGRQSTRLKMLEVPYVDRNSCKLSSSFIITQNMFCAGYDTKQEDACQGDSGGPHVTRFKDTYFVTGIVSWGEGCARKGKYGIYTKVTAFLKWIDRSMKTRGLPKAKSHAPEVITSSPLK
T4 sequence (P00742 41-179 partner limits assumed): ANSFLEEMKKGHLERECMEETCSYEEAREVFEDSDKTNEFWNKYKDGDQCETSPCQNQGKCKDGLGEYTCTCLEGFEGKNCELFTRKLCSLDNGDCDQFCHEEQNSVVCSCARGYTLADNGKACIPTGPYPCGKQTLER
T2 sequence (P04070 212-461 limits assumed): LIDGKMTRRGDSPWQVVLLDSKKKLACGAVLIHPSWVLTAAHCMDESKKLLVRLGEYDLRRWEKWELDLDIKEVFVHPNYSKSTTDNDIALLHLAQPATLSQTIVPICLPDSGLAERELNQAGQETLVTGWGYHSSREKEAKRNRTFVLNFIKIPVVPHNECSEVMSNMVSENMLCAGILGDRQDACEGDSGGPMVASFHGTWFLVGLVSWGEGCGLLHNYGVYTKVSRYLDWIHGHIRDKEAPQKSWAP
T2 sequence (P04070 43-197 partner limits assumed): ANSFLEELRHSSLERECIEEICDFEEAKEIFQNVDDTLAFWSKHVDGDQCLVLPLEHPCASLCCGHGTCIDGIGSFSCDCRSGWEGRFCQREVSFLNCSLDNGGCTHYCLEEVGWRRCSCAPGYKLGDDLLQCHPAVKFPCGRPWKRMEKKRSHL
T6 sequence (P08709 213-466 limits assumed): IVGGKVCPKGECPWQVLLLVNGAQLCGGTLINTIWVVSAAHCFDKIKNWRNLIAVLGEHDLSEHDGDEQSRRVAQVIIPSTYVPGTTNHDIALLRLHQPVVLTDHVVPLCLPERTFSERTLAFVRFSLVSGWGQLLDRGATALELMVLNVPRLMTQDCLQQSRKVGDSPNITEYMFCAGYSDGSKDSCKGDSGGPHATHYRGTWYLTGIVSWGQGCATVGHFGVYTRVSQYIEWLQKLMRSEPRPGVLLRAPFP
T6 sequence (P08709 61-212 partner limits assumed): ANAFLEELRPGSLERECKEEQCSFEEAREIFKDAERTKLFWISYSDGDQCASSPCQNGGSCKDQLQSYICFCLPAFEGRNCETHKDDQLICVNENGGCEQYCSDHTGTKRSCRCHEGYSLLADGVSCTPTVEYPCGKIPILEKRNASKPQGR
T6 sequence (P13726 33-295 partner): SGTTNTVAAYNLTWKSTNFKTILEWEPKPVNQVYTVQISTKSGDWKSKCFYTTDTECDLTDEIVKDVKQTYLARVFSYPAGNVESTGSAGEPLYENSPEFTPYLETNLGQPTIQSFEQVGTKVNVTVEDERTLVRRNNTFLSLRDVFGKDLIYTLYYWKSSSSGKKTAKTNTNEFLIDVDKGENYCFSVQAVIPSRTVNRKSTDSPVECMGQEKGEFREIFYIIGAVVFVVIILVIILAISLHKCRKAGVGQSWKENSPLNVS
Chain of plasmin (P00747 581-810 limits assumed): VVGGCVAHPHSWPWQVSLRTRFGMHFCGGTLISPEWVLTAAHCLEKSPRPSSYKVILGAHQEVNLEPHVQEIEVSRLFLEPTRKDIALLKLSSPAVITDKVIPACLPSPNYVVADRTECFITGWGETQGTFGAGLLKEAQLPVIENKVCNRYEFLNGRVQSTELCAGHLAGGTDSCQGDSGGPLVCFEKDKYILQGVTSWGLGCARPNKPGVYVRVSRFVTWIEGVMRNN
Chain of plasmin (P00747 97-580 partner limits assumed): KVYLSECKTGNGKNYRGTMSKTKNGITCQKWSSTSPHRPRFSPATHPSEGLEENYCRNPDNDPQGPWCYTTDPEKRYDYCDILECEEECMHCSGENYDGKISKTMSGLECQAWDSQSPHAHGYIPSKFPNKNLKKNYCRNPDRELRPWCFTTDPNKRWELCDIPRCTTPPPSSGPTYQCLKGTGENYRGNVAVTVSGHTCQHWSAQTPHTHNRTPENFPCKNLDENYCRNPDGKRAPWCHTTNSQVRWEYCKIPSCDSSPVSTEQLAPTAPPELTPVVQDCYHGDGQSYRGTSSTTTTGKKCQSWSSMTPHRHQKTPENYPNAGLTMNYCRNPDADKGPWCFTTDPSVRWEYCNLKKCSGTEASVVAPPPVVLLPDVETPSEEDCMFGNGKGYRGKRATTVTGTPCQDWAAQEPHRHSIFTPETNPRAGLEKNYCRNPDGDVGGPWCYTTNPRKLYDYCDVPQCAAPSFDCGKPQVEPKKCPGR
Chain of recombinant tissue plasminogen activator (P00750 36-562): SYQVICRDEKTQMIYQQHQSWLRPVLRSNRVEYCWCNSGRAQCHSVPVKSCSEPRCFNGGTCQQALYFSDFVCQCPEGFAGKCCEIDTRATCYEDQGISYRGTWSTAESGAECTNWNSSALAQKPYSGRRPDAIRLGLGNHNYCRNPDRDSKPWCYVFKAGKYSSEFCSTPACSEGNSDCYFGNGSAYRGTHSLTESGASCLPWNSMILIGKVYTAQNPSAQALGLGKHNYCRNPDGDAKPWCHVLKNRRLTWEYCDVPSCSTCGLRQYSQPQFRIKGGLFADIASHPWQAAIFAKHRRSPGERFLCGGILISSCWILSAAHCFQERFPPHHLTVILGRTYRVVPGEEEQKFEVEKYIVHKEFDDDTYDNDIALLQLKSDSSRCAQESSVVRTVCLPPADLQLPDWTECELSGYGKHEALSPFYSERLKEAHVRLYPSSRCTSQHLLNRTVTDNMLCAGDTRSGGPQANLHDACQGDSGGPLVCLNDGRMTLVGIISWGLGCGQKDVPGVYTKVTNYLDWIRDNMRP
T3 sequence (P03951 388-625 limits assumed): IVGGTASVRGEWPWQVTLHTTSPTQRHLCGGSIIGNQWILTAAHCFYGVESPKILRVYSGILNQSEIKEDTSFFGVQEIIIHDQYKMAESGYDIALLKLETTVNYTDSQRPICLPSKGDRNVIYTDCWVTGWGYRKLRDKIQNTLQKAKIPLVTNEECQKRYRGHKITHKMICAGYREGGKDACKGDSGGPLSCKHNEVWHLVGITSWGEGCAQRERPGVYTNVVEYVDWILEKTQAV
T3 sequence (P03951 19-387 partner limits assumed): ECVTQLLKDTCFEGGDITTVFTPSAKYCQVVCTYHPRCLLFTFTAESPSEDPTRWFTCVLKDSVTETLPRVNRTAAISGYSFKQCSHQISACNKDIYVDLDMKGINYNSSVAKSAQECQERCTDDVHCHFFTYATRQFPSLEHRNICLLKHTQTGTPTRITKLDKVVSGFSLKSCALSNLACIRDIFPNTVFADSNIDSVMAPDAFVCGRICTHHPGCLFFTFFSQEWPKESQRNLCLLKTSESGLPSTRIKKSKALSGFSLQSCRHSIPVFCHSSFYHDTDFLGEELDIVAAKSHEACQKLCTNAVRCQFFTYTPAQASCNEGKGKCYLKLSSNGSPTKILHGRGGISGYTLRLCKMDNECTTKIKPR

Compound	IC50 [1, 5] [µM]	IC50 (human kallekrein) [µM]	efficacy in the treatment of acute pancreatitis induced in animal models [2]	IC50 [3, 5] [µM]	IC50 (human Factor XIa) [µM]	IC50 (human Factor Xa; [5]) [µM]	IC50 (bovine trypsin) [µM]	IC50 (Factor VIIa:rTF complex; [5]) [µM]	IC50 (bovine thrombin; [5]) [µM]	IC50 (plasmin) [µM]	Calculated % Selectivity tPA [1] [%]	Calculated % Selectivity Kallikrein (human kallekrein) [%]	Calculated % Selectivity Plasmin (plasmin) [%]	Calculated % Selectivity Protein C [3] [%]	Calculated % Selectivity XIa (human Factor XIa) [%]	IC50 (human urokinase) [µM]	Calculated % Selectivity UK (human urokinase) [%]	Ki [4] [µM]	Calculated % Selectivity Xa (human Factor Xa) [%]	Calculated % Selectivity Trypsin (bovine trypsin) [%]	other results
N=C(N)c1ccc2cc(OC(=O)c3ccc(N=C(N)N)cc3)ccc2c1 [Futhan, 6-amidino-2-naphthyl-4-guanidino benzoate dimethanesulfonate, reference compound]	0.37	< 0.025	effective	0.084	< 0.025	6	< 0.025	1.2	0.21	–	–	–	–	–	–	–	–	–	–	–	–
CCOC(=O)c1ccc(OC(=O)CCCCCN=C(N)N)cc1.CS(=O)(=O)O [FOY, gabexate mesilate, reference compound]	9	–	effective to varying degrees	15	–	8	0.25	> 25	6	1.6	–	–	–	–	–	–	–	–	–	–	–
CC(C)(C)OC(=O)N[C@H](CC(=O)O)C(=O)N1CCC[C@H]1C(=O)N[C@H](C=O)CCCNC(=N)N [Compound 12, N-t-buyloxycarbonyl-D-Asp-L-Pro-L-argininal] (Boc-[dD]-Pro-Arg-aldehyde)	> 25	> 25	–	> 25	> 25	> 25	0.084	–	–	1.2	< 0.3	< 0.34	7	< 0.3	< 0.34	17	0.5	0.045	< 0.34	100	IC50 VIIA (Factor VIIa:rTF complex; [5]): Inact.; Calculated % Selectivity VIIa (Factor VIIa:rTF complex): 0%; IC50 Thrombin (bovine thrombin; [5]): Inact.; Calculated % Selectivity Thrombin (bovine thrombin): 0%
CN(C)C(=O)COC(=O)Cc1ccc(OC(=O)c2ccc(NC(=N)N)cc2)cc1.CS(=O)(=O)O [Foy-305, camostate]	–	–	effective to varying degrees	–	–	–	–	–	–	–	–	–	–	–	–	–	–	–	–	–	–
CC(C)(C)OC(=O)N[C@@H](CCC(=O)O)C(=O)N1CCC[C@H]1C(=O)N[C@H](C=O)CCCNC(=N)N [Compound 8, N-t-butyloxycarbonyl-L-Glu-L-Pro-L-argininal] (Boc-Glu-Pro-Arg-aldehyde)	–	6	–	–	4	–	0.006	> 25	14	0.6	0	0.10	1	0	0.15	9	0.07	0.0014	0	100	IC50 tPA [1, 5]: Inact.; IC50 Protein C [3, 5]: Inact.; IC50 Xa (human Factor Xa; [5]): Inact.; Calculated % Selectivity VIIa (Factor VIIa:rTF complex): < 0.02%; Calculated % Selectivity Thrombin (bovine thrombin): 0.04%
N=C(N)NCCC[C@@H](C=O)NC(=O)[C@@H]1CCCN1C(=O)[C@H](CC(=O)O)NC(=O)OC12CC3CC(CC(C3)C1)C2 [Compound 11, N-adamantyloxycarbonyl-L-AsP-L-Pro-L-argininal]	> 25	2	–	> 25	6	0.3	< 0.025	> 25	10	1.1	< 0.1	< 1.3	< 2	< 0.1	< 0.42	19	< 0.1	0.0002	< 0.83	100	Calculated % Selectivity VIIa (Factor VIIa:rTF complex): < 0.1%; Calculated % Selectivity Thrombin (bovine thrombin): < 0.25%
